According to ChEMBL document CHEMBL1201862, “PubChem BioAssay data set” (2004):
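Compound exposure: 48 hours, 5 concentrations, 96-well plates. The concentration for 50% growth inhibition is given as GI50.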 Calls of active or inactive are those of the source. Rule as the data show it: active = GI50 up to about 1.1 µM and inactive = higher.

Tests used:
Assay in all cases: NCI anticancer screen, dose series, 48 h
[1] = tested on: COLO 205
[2] = tested on: LXFL 529
[3] = tested on: IGROV-1
[4] = tested on: NCI-H460
[5] = tested on: HOP-18
[6] = tested on: A549
[7] = tested on: M19-MEL
[8] = tested on: TK-10
[9] = tested on: RXF 393
[10] = tested on: SK-MEL-28
[11] = tested on: HL-60
[12] = tested on: SNB-19
[13] = tested on: HCC 2998
[14] = tested on: 786-0
[15] = tested on: K562
[16] = tested on: SN12C
[17] = tested on: HOP-62
[18] = tested on: OVCAR-5
[19] = tested on: DMS-114
[20] = tested on: SF-539
[21] = tested on: KM12
[22] = tested on: HT-29
[23] = tested on: EKVX
[24] = tested on: RPMI-8226
[25] = tested on: SF-295
[26] = tested on: UACC-257
[27] = tested on: CAKI-1
[28] = tested on: NCI-H23
[29] = tested on: OVCAR-8
[30] = tested on: UO-31
[31] = tested on: MOLT-4
[32] = tested on: DMS-273
[33] = tested on: OVCAR-4
[34] = tested on: SNB-78
[35] = tested on: ACHN
[36] = tested on: SK-MEL-2
[37] = tested on: SF-268
[38] = tested on: SNB-75
[39] = tested on: DLD-1
[40] = tested on: SK-OV-3
[41] = tested on: NCI-H522
[42] = tested on: HOP-92
[43] = tested on: HCT-15
[44] = tested on: KM-20L2
[45] = tested on: Malme-3M
[46] = tested on: SK-MEL-5
[47] = tested on: U-251
[48] = tested on: CCRF-CEM
[49] = tested on: M14
[50] = tested on: UACC-62
[51] = tested on: A498
[52] = tested on: HCT-116
[53] = tested on: NCI-H226
[54] = tested on: SW-620
[55] = tested on: OVCAR-3
[56] = tested on: XF498
[57] = tested on: SR

SMILES: CCC1=C(C(C)=O)[C@@H]2CCCCC(C(=O)OC)[C@@H]2C1=O (some centres undefined)
- GI50 [1]: > 100 µM (inactive)
- GI50 [2]: > 100 µM (inactive)
- GI50 [3]: > 100 µM (inactive)
- GI50 [4]: > 100 µM (inactive)
- GI50 [5]: 47 µM (inactive)
- GI50 [6]: > 100 µM (inactive)
- GI50 [7]: 79.4 µM (inactive)
- GI50 [8]: > 100 µM (inactive)
- GI50 [9]: > 100 µM (inactive)
- GI50 [10]: > 100 µM (inactive)
- GI50 [11]: > 100 µM (inactive)
- GI50 [12]: > 100 µM (inactive)
- GI50 [13]: > 100 µM (inactive)
- GI50 [14]: > 100 µM (inactive)
- GI50 [15]: > 100 µM (inactive)
- GI50 [16]: > 100 µM (inactive)
- GI50 [17]: > 100 µM (inactive)
- GI50 [18]: > 100 µM (inactive)
- GI50 [19]: > 100 µM (inactive)
- GI50 [20]: > 100 µM (inactive)
- GI50 [21]: > 100 µM (inactive)
- GI50 [22]: > 100 µM (inactive)
- GI50 [23]: > 100 µM (inactive)
- GI50 [24]: > 100 µM (inactive)
- GI50 [25]: > 100 µM (inactive)
- GI50 [26]: > 100 µM (inactive)
- GI50 [27]: > 100 µM (inactive)
- GI50 [28]: > 100 µM (inactive)
- GI50 [29]: > 100 µM (inactive)
- GI50 [30]: > 100 µM (inactive)
- GI50 [31]: > 100 µM (inactive)
- GI50 [32]: > 100 µM (inactive)
- GI50 [33]: > 100 µM (inactive)
- GI50 [34]: > 100 µM (inactive)
- GI50 [35]: > 100 µM (inactive)
- GI50 [36]: > 100 µM (inactive)
- GI50 [37]: > 100 µM (inactive)
- GI50 [38]: > 100 µM (inactive)
- GI50 [39]: > 100 µM (inactive)
- GI50 [40]: > 100 µM (inactive)
- GI50 [41]: 88.1 µM (inactive)
- GI50 [42]: > 100 µM (inactive)
- GI50 [43]: > 100 µM
- GI50 [44]: > 100 µM (inactive)
- GI50 [45]: > 100 µM (inactive)
- GI50 [46]: > 100 µM (inactive)
- GI50 [47]: > 100 µM (inactive)
- GI50 [48]: > 100 µM (inactive)
- GI50 [49]: > 100 µM (inactive)
- GI50 [50]: > 100 µM (inactive)
- GI50 [51]: > 100 µM (inactive)
- GI50 [52]: > 100 µM (inactive)
- GI50 [53]: > 100 µM (inactive)
- GI50 [54]: > 100 µM (inactive)

SMILES: COc1ccc2c(OC)c3ccoc3nc2c1O
- GI50 [1]: > 100 µM (inactive)
- GI50 [2]: > 100 µM (inactive)
- GI50 [3]: > 100 µM (inactive)
- GI50 [4]: 85.9 µM (inactive)
- GI50 [5]: 0.114 µM (active)
- GI50 [6]: > 100 µM (inactive)
- GI50 [7]: 54.8 µM (inactive)
- GI50 [8]: > 100 µM (inactive)
- GI50 [10]: > 100 µM (inactive)
- GI50 [12]: > 100 µM (inactive)
- GI50 [13]: > 100 µM (inactive)
- GI50 [55]: > 100 µM (inactive)
- GI50 [14]: > 100 µM (inactive)
- GI50 [15]: > 100 µM (inactive)
- GI50 [16]: > 100 µM (inactive)
- GI50 [17]: 49.2 µM (inactive)
- GI50 [18]: > 100 µM (inactive)
- GI50 [19]: > 100 µM (inactive)
- GI50 [20]: > 100 µM (inactive)
- GI50 [21]: > 100 µM (inactive)
- GI50 [22]: > 100 µM (inactive)
- GI50 [23]: 53.8 µM (inactive)
- GI50 [24]: 33.7 µM (inactive)
- GI50 [25]: > 100 µM (inactive)
- GI50 [26]: 39.5 µM (inactive)
- GI50 [27]: 93.3 µM (inactive)
- GI50 [28]: > 100 µM (inactive)
- GI50 [29]: > 100 µM (inactive)
- GI50 [30]: 63.1 µM (inactive)
- GI50 [31]: 42.2 µM (inactive)
- GI50 [33]: > 100 µM (inactive)
- GI50 [34]: > 100 µM (inactive)
- GI50 [35]: > 100 µM (inactive)
- GI50 [36]: > 100 µM (inactive)
- GI50 [37]: > 100 µM (inactive)
- GI50 [38]: 86.9 µM (inactive)
- GI50 [39]: 78.3 µM (inactive)
- GI50 [40]: > 100 µM (inactive)
- GI50 [41]: > 100 µM (inactive)
- GI50 [43]: 37 µM
- GI50 [44]: > 100 µM (inactive)
- GI50 [56]: > 100 µM (inactive)
- GI50 [45]: > 100 µM (inactive)
- GI50 [46]: > 100 µM (inactive)
- GI50 [47]: > 100 µM (inactive)
- GI50 [48]: 43.3 µM (inactive)
- GI50 [49]: > 100 µM (inactive)
- GI50 [50]: 77.8 µM (inactive)
- GI50 [51]: > 100 µM (inactive)
- GI50 [52]: > 100 µM (inactive)
- GI50 [54]: > 100 µM (inactive)

SMILES: COC(=O)CSc1nnc(-c2ccccc2)[nH]1
- GI50 [1]: > 100 µM (inactive)
- GI50 [2]: > 100 µM (inactive)
- GI50 [3]: > 100 µM (inactive)
- GI50 [4]: > 100 µM (inactive)
- GI50 [5]: > 100 µM (inactive)
- GI50 [6]: > 100 µM (inactive)
- GI50 [7]: > 100 µM (inactive)
- GI50 [8]: > 100 µM (inactive)
- GI50 [10]: > 100 µM (inactive)
- GI50 [11]: > 100 µM (inactive)
- GI50 [12]: > 100 µM (inactive)
- GI50 [55]: > 100 µM (inactive)
- GI50 [14]: > 100 µM (inactive)
- GI50 [15]: > 100 µM (inactive)
- GI50 [16]: > 100 µM (inactive)
- GI50 [17]: > 100 µM (inactive)
- GI50 [18]: > 100 µM (inactive)
- GI50 [19]: > 100 µM (inactive)
- GI50 [20]: > 100 µM (inactive)
- GI50 [21]: > 100 µM (inactive)
- GI50 [22]: > 100 µM (inactive)
- GI50 [23]: > 100 µM (inactive)
- GI50 [24]: > 100 µM (inactive)
- GI50 [25]: > 100 µM (inactive)
- GI50 [26]: > 100 µM (inactive)
- GI50 [27]: > 100 µM (inactive)
- GI50 [28]: > 100 µM (inactive)
- GI50 [29]: > 100 µM (inactive)
- GI50 [30]: > 100 µM (inactive)
- GI50 [31]: 16.4 µM (inactive)
- GI50 [32]: > 100 µM (inactive)
- GI50 [33]: > 100 µM (inactive)
- GI50 [34]: > 100 µM (inactive)
- GI50 [35]: > 100 µM (inactive)
- GI50 [36]: > 100 µM (inactive)
- GI50 [37]: > 100 µM (inactive)
- GI50 [38]: 40.5 µM (inactive)
- GI50 [39]: > 100 µM (inactive)
- GI50 [57]: 3.7 µM (inactive)
- GI50 [40]: > 100 µM (inactive)
- GI50 [41]: > 100 µM (inactive)
- GI50 [42]: > 100 µM (inactive)
- GI50 [43]: > 100 µM
- GI50 [44]: > 100 µM (inactive)
- GI50 [45]: > 100 µM (inactive)
- GI50 [46]: > 100 µM (inactive)
- GI50 [47]: > 100 µM (inactive)
- GI50 [48]: > 100 µM (inactive)
- GI50 [49]: > 100 µM (inactive)
- GI50 [50]: > 100 µM (inactive)
- GI50 [51]: > 100 µM (inactive)
- GI50 [52]: > 100 µM (inactive)
- GI50 [53]: > 100 µM (inactive)
- GI50 [54]: > 100 µM (inactive)
